We go through 1 compound from patent publication US20030162762A1, “Novel cephalosporin compounds and process for preparing the same” (priority 2000, published 2003).

≈ marks a conversion by molar mass, not a printed value.

What all share (test): Minimum Inhibitory Concentration (MIC), agar dilution, standard strains
On the technique in general: In agar dilution the substance is mixed into plates at graded concentrations.

One test has as its system E. faecalis L239. In kind it is cell-based. To be noted: Enterococcus faecalis, L239, 20 h, read-out: Minimum Inhibitory Concentration, E. faecalis L239.
A further test deals with E. faecalis EFS004. In kind it is cell-based. The following applies: Enterococcus faecalis, EFS004, 20 h, read-out: Minimum Inhibitory Concentration, E. faecalis EFS004.
A further test has as its system S. epidermidis R005. In kind it is cell-based.
In test [1] the test system is Staphylococcus aureus giorgio. Type of test: cell-based.
The test system of another test is S. aureus K311. Type of test: cell-based, Staphylococcus aureus. The following applies: Staphylococcus aureus, K311, 20 h, read-out: Minimum Inhibitory Concentration, S. aureus K311.
Another test relates to S. aureus 77. Type of test: cell-based, Staphylococcus aureus.
Another test relates to S. aureus 241. Type of test: cell-based, Staphylococcus aureus. To be noted: Staphylococcus aureus, 241, 20 h, read-out: Minimum Inhibitory Concentration, S. aureus 241.
Setting [2] is: Table 2, Mueller-Hinton agar, 37° C., 20 hours.

Regarding `CN[C@H](CC(C)C)C(=O)N[C@H]1C(=O)N[C@@H](CC(N)=O)C(=O)N[C@H]2C(=O)N[C@H]3C(=O)N[C@H](C(=O)N[C@H](C(=O)O)c4cc(O)cc(O)c4-c4cc3ccc4O)[C@H](O)c3ccc(c(Cl)c3)Oc3cc2cc(c3O[C@@H]2O[C@H](CO)[C@@H](O)[C@H](O)[C@H]2O[C@H]2C[C@](C)(N)[C@H](O)[C@H](C)O2)Oc2ccc(cc2Cl)[C@H]1O` [Vancomycin, vancomycin, reference compound], the MIC stood at 2 µg/mL (≈ 1.38 µM) with E. faecalis L239; 2 µg/mL (≈ 1.38 µM) in the test on E. faecalis EFS004; 1 µg/mL (≈ 0.69 µM) with S. epidermidis R005 (Staphylococcus epidermidis, R005, 20 h, read-out: Minimum Inhibitory Concentration, S. epidermidis R005); 1 µg/mL (≈ 0.69 µM) in test [1] (Staphylococcus aureus, 20 h, read-out: Minimum Inhibitory Concentration, Staphylococcus aureus giorgio); 2 µg/mL (≈ 1.38 µM) with S. aureus K311; 1 µg/mL (≈ 0.69 µM) in the test on S. aureus 77 (Staphylococcus aureus, 77, 20 h, read-out: Minimum Inhibitory Concentration, S. aureus 77). Further, the MIC in the test with S. aureus 241 amounted to 2 µg/mL (≈ 1.38 µM). Further, the “Minimum Inhibitory Concentration, S. epidermidis R005” value in the test with S. epidermidis R005 (setting [2]) was 1 µg/mL. Besides, in test [1] (setting [2]), the “Minimum Inhibitory Concentration, Staphylococcus aureus giorgio” value was determined as 1 µg/mL. Besides, the “Minimum Inhibitory Concentration, S. aureus 77” value in the test on S. aureus 77 (setting [2]) was found to be 1 µg/mL.
